Like-named read-outs stand apart in the source and are kept apart here.
Tests used:
[1] = target: T1, cloned human 5-HT1A receptors (Homo sapiens, UniProt P08908); assay: 35S-GTPγS binding assay, 5-HT1A function; assay type: biochemical; conditions: for EC50: agonist potency; for IC50: antagonist potency, reversal of 8-OH-DPAT, read-out: 5-HT1A Function GTPγS IC50
T1 construct: expressed in transfected cells
T1 sequence (P08908 1-422): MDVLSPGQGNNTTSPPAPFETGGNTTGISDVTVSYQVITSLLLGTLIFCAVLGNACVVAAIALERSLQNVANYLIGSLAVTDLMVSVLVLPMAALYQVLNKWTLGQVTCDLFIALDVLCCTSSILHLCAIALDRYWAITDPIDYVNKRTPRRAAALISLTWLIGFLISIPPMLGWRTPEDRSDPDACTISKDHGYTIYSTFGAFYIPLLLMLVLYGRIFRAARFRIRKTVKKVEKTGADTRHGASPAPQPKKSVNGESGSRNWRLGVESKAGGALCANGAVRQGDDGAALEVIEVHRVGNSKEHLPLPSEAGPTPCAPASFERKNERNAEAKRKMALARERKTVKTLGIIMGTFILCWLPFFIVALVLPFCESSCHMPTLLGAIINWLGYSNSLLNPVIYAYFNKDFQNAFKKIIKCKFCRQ

5-HT1A receptor [2] = target: T2, 5-HT1A receptor (Homo sapiens, UniProt P08908); assay: cAMP accumulation assay, 5-HT1A function; assay type: cell-based; conditions: for EC50: cells marked EC50 (agonist); for Emax / 5-HT1A Function cAMP (Emax): in brackets after EC50 or IC50; for Emax: read-out: 5-HT1A Function cAMP (Emax); for IC50: cells marked IC50 (antagonist), read-out: 5-HT1A Function cAMP IC50
T2 sequence (P08908 1-422): T1 sequence (P08908 1-422)

5-HT1A receptor [3] = target: T2, 5-HT1A receptor; assay: 5-HT1A receptor affinity: displacement of [3H] 8-OH-DPAT; assay type: binding; parameters: expressed in transfected cells; conditions: displacement of [3H] 8-OH-DPAT; CHO cells stably transfected with human 5-HT1A receptors; read-out: 5-HT1A Receptor Affinity Ki
serotonin transporter = target: T3, serotonin transporter (Rattus norvegicus, UniProt P31652); assay: 5-HT transporter affinity: displacement of 3H-paroxetine from male rat cortical membranes; assay type: binding; conditions: for Ki: displacement of 3H-paroxetine, male rat cortical membranes, read-out: 5-HT Transporter Affinity Ki
T3 construct: displace ^3H-paroxetine from male rat cortical membranes; from tissue; host or cells: male rat cortical membranes
T3 sequence (P31652 whole entry): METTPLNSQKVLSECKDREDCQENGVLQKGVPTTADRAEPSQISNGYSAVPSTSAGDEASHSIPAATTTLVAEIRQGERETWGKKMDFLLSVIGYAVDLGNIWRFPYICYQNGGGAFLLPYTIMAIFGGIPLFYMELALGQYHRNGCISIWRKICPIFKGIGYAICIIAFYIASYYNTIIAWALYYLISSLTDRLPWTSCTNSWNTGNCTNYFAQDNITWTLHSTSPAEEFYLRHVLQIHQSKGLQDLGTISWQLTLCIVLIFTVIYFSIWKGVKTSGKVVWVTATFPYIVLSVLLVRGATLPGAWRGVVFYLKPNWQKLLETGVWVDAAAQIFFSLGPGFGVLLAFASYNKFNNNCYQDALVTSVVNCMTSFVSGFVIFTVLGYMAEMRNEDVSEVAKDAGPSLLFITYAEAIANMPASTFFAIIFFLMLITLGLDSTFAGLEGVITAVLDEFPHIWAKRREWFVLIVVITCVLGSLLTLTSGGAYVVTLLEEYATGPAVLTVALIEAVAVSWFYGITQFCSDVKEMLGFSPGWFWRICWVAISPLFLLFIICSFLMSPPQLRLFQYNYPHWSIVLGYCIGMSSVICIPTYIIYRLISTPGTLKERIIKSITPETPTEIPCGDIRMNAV

[4] = maximum stimulatory effect, in brackets after EC50, read-out: 5-HT1A Function GTPγS (Emax)
[5] = maximum inhibitory effect, in brackets after IC50
[6] = maximum inhibitory effect, in brackets after IC50, read-out: 5-HT1A Function GTPγS (Imax)

| SMILES | EC50 [1] | Emax [1, 4] | EC50 (5-HT1A receptor [2]) | Emax (5-HT1A receptor [2]) | Ki (5-HT1A receptor [3]) | Ki (serotonin transporter) | 5-HT Transporter Affinity, % @ 1 μM (serotonin transporter; @ 1 μM) | IC50 [1] | 5-HT1A Function GTPγS (Imax) [1, 5] | IC50 (5-HT1A receptor [2]) | 5-HT1A Function cAMP (Emax) (5-HT1A receptor [2]) | Emax [1, 6] |
| --- | --- | --- | --- | --- | --- | --- | --- | --- | --- | --- | --- | --- |
| CCCN(C1COc2cccc(OC)c2C1)[C@H]1CC[C@@H](c2c[nH]c3ccc(F)cc32)CC1 (relative stereo) [Compound 182, cis-N-[4-(5-fluoro-1H-indol-3-yl)cyclohexyl]-5-methoxy-N-propylchroman-3-amine] | 893 nM | 64.5% | 184 nM | 65% | 237 nM | 128 nM |  |  |  |  |  |  |
| CCCN(C1COc2cccc(OC)c2C1)[C@H]1CC[C@H](c2c[nH]c3ccc(F)cc32)CC1 (relative stereo) [Compound 183, trans-N-[4-(5-fluoro-1H-indol-3-yl)cyclohexyl]-5-methoxy-N-propylchroman-3-amine] | 10000 nM | 35% | 302 nM | 65.5% | 183 nM |  | 53% @ 1 μM |  |  |  |  |  |
| CCCN(C(C)CCc1c[nH]c2ccc(F)cc12)C1COc2c(F)ccc(C(N)=O)c2C1 (single isomer, unassigned) [Compound 12a, 8-fluoro-3-[[3-(5-fluoro-1H-indol-3-yl)-1-methylpropyl](propyl)amino]-3,4-dihydro-2H-chromene-5-carboxamide] |  |  |  |  | 5.19 nM | 22 nM |  | 323 nM | 96% | 47.5 nM | 0% |  |
| CCCN(C(C)CCc1c[nH]c2ccc(F)cc12)C1COc2c(F)ccc(C(N)=O)c2C1 (single isomer, unassigned) [Compound 12b, 8-fluoro-3-[[3-(5-fluoro-1H-indol-3-yl)-1-methylpropyl](propyl)amino]-3,4-dihydro-2H-chromene-5-carboxamide] | 366 nM | 73.5% | 62.6 nM |  | 19.4 nM | 50 nM |  |  |  |  | 78% |  |
| CCCN(C(C)CCc1c[nH]c2ccc(F)cc12)C1COc2c(F)ccc(C(N)=O)c2C1 (single isomer, unassigned) [Compound 12c, 8-fluoro-3-[[3-(5-fluoro-1H-indol-3-yl)-1-methylpropyl](propyl)amino]-3,4-dihydro-2H-chromene-5-carboxamide] |  |  |  |  | 48.8 nM | 121 nM |  | 3000 nM | 100% | 73.7 nM | 0% |  |
| CCCN(C(C)CCc1c[nH]c2ccc(C#N)cc12)C1COc2c(F)ccc(C(N)=O)c2C1 (single isomer, unassigned) [Compound 13a, 3-[[3-(5-cyano-1H-indol-3-yl)-1-methylpropyl](propyl)amino]-8-fluoro-3,4-dihydro-2H-chromene-5-carboxamide] |  |  |  |  | 24.3 nM | 23.5 nM |  | 534 nM |  | 76.6 nM | 0% | 100% |
| CCCN(C(C)CCc1c[nH]c2ccc(C#N)cc12)C1COc2c(F)ccc(C(N)=O)c2C1 (single isomer, unassigned) [Compound 13b, 3-[[3-(5-cyano-1H-indol-3-yl)-1-methylpropyl](propyl)amino]-8-fluoro-3,4-dihydro-2H-chromene-5-carboxamide] | 1470 nM | 56.5% | 139 nM |  | 152 nM | 37 nM |  |  |  |  | 68% |  |
| CCCN(C(C)CCc1c[nH]c2ccc(C#N)cc12)C1COc2c(F)ccc(C(N)=O)c2C1 (single isomer, unassigned) [Compound 13c, 3-[[3-(5-cyano-1H-indol-3-yl)-1-methylpropyl](propyl)amino]-8-fluoro-3,4-dihydro-2H-chromene-5-carboxamide] |  |  |  |  | 119 nM | 118 nM |  | 2520 nM | 92% | 316 nM | 0% |  |
| CC(CCc1c[nH]c2c(F)cc(F)cc12)N(CC1CC1)C1COc2c(F)ccc(C(N)=O)c2C1 (single isomer, unassigned) [Compound 154c, 3-{(cyclopropylmethyl)[3-(5,7-difluoro-1H-indol-3-yl)-1-methylpropyl]amino}-8-fluorochromane-5-carboxamide] |  |  |  | 0% | 24.8 nM | 67.5 nM |  | 1990 nM | 100% | 3090 nM |  |  |
| CC(Cc1c[nH]c2ccc(F)cc12)CN(CC1CC1)[C@H]1COc2c(F)ccc(C(N)=O)c2C1 (single isomer, unassigned) [Compound 155a] |  |  |  | 0% | 4.16 nM | 48.8 nM |  | 151 nM |  | 106 nM |  | 100% |
| NC(=O)c1ccc(F)c2c1CC(NCCCc1c[nH]c3ccc(F)cc13)CO2 (single isomer, unassigned; (+)) [Compound 1a, (+)-8-fluoro-3-{[3-(5-fluoro-1H-indol-3-yl)propyl]amino}chromane-5-carboxamide] | 993 nM | 87% | 95.8 nM | 84.5% | 46.3 nM | 26.2 nM |  |  |  |  |  |  |
| CCCN(CCCc1c[nH]c2ccc(F)cc12)C1COc2c(F)ccc(C(N)=O)c2C1 (single isomer, unassigned; (+)) [Compound 2b, (+)-8-fluoro-3-[[3-(5-fluoro-1H-indol-3-yl)propyl](propyl)amino]-3,4-dihydro-2H-chromene-5-carboxamide] | 36.3 nM | 80% | 19.9 nM |  | 2.21 nM | 3.86 nM |  |  |  |  | 97% |  |
| CCN(CCCc1c[nH]c2ccc(F)cc12)C1COc2c(F)ccc(C(N)=O)c2C1 (single isomer, unassigned; (+)) [Compound 3b, (+)-3-{ethyl[3-(5-fluoro-1H-indol-3-yl)propyl]amino}-8-fluoro-3,4-dihydro-2H-chromene-5-carboxamide] |  |  | 31.4 nM |  | 15.5 nM | 4.5 nM |  | 665 nM | 35.8% |  | 90.5% |  |
| NC(=O)c1ccc(F)c2c1CC(N(CCCc1c[nH]c3c(F)cc(F)cc13)C1CCC1)CO2 (single isomer, unassigned; (+)) [Compound 9b, (+)-3-{cyclobutyl[3-(5,7-difluoro-1H-indol-3-yl)propyl]amino}-8-fluorochromane-5-carboxamide] |  |  |  |  | 68.9 nM | 12.2 nM |  | 6000 nM | 74% | 197 nM | 0% |  |
| CCCN(C(C)CCCc1c[nH]c2ccc(F)cc12)C1COc2c(F)ccc(C(N)=O)c2C1 (single isomer, unassigned; (+)) [Compound 14a, (+)-8-fluoro-3-[[4-(5-fluoro-1H-indol-3-yl)-1-methylbutyl](propyl)amino]chromane-5-carboxamide] |  |  |  | 0% | 41.7 nM | 13.6 nM |  | 2210 nM | 59% | 147 nM |  |  |
| CC(CCc1c[nH]c2ccc(F)cc12)N(CC1CC1)C1COc2c(F)ccc(C(N)=O)c2C1 (single isomer, unassigned; (+)) [Compound 15b, (+)-3-{(cyclopropylmethyl)[3-(5-fluoro-1H-indol-3-yl)-1-methylpropyl]amino}-8-fluorochromane-5-carboxamide] | 108 nM | 32% | 32.4 nM |  | 31.7 nM | 46.7 nM |  |  |  |  | 73% |  |
| CCN(C(C)CCc1c[nH]c2ccc(F)cc12)C1COc2c(F)ccc(C(N)=O)c2C1 (single isomer, unassigned; (+)) [Compound 16b, (+)-3-{ethyl[3-(5-fluoro-1H-indol-3-yl)-1-methylpropyl]amino}-8-fluorochromane-5-carboxamide] | 807 nM | 20% | 164 nM |  | 128 nM | 0.95 nM |  |  |  |  | 64.5% |  |
| CCN(CCCCn1ccc2c(F)cccc21)C1COc2c(F)ccc(C(N)=O)c2C1 (centres unmarked) [Compound 201, 3-{Ethyl[4-(4-fluoro-1H-indol-1-yl)butyl]amino}-8-fluorochromane-5-carboxamide] |  |  | 210 nM | 92% | 42.7 nM | 95 nM |  |  |  |  |  |  |
| CCCN(CCCCn1ccc2c(F)cccc21)C1COc2c(F)ccc(C(N)=O)c2C1 (centres unmarked) [Compound 202, 8-Fluoro-3-[[4-(4-fluoro-1H-indol-1-yl)butyl](propyl)amino]chromane-5-carboxamide] |  |  | 137 nM | 78% | 14 nM | 210 nM |  |  |  |  |  |  |

Source: US20050032873A1, “3-Amino chroman and 2-amino tetralin derivatives” (Wyeth, priority 2003, published 2005)
